Converted amounts (≈) assume the structure as drawn.
Tested on: Mycobacterium tuberculosis
Experiment: Antitubercular activity against Mycobacterium tuberculosis H37Ra
Type: functional

C=C[C@H]1C=C[C@@H]2[C@@H]3[C@@H](Oc4ccc(cc4)C[C@@]4(O)C[C@H](C(=O)N4)C(=O)[C@@H]13)[C@@H]1CC[C@@H](C)C[C@@]21C
MIC: 0.78 µg/mL (≈ 1.69 µM)

Source: ChEMBL document CHEMBL5120959, “Pyrrospirones K-Q, Decahydrofluorene-Class Alkaloids from the Marine-Derived Fungus Penicillium sp. SCSIO 41512” (J Nat Prod, 2022)
